Reference: PubChem BioAssay (NCI)
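Compound exposure: 48 hours, 5 concentrations, 96-well plates. TGI marks complete inhibition of growth.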

How the values were obtained:
Assay in all cases: NCI-60 cell line screen, 48 h
SK-MEL-2 melanoma = system: SK-MEL-2 melanoma
A549 NSCLC = system: A549 NSCLC
HL-60(TB) leukemia = system: HL-60(TB) leukemia
HOP-62 NSCLC = system: HOP-62 NSCLC
HCT-15 colon = system: HCT-15 colon
HCT-116 colon = system: HCT-116 colon
SF-268 CNS = system: SF-268 CNS
KM20L2 colon = system: KM20L2 colon
IGROV1 ovarian = system: IGROV1 ovarian
KM12 colon = system: KM12 colon
EKVX NSCLC = system: EKVX NSCLC
CAKI-1 renal = system: CAKI-1 renal
SNB-78 CNS = system: SNB-78 CNS
LXFL 529 NSCLC = system: LXFL 529 NSCLC
UACC-62 melanoma = system: UACC-62 melanoma
MOLT-4 leukemia = system: MOLT-4 leukemia
NCI-H23 lung = system: NCI-H23 lung
DLD-1 colon = system: DLD-1 colon
NCI-H226 lung = system: NCI-H226 lung
M19-MEL melanoma = system: M19-MEL melanoma
LOX IMVI melanoma = system: LOX IMVI melanoma
COLO 205 colon = system: COLO 205 colon
SF-295 CNS = system: SF-295 CNS
OVCAR-4 ovarian = system: OVCAR-4 ovarian
M14 melanoma = system: M14 melanoma
ACHN renal = system: ACHN renal
A498 renal = system: A498 renal
U251 CNS = system: U251 CNS
HCC-2998 colon = system: HCC-2998 colon
K-562 leukemia = system: K-562 leukemia
SF-539 CNS = system: SF-539 CNS
HOP-92 NSCLC = system: HOP-92 NSCLC
UO-31 renal = system: UO-31 renal
MALME-3M melanoma = system: MALME-3M melanoma
XF 498 CNS = system: XF 498 CNS
SNB-19 CNS = system: SNB-19 CNS
OVCAR-3 ovarian = system: OVCAR-3 ovarian
SK-MEL-28 melanoma = system: SK-MEL-28 melanoma
NCI-H460 lung = system: NCI-H460 lung
DMS 114 small cell lung = system: DMS 114 small cell lung
SN12C renal = system: SN12C renal
OVCAR-8 ovarian = system: OVCAR-8 ovarian
RXF 393 renal = system: RXF 393 renal
SK-OV-3 ovarian = system: SK-OV-3 ovarian
SW-620 colon = system: SW-620 colon
SNB-75 CNS = system: SNB-75 CNS
786-0 renal = system: 786-0 renal
UACC-257 melanoma = system: UACC-257 melanoma
NCI-H522 lung = system: NCI-H522 lung
SK-MEL-5 melanoma = system: SK-MEL-5 melanoma
OVCAR-5 ovarian = system: OVCAR-5 ovarian
RPMI-8226 leukemia = system: RPMI-8226 leukemia
CCRF-CEM leukemia = system: CCRF-CEM leukemia
TK-10 renal = system: TK-10 renal
DMS 273 small cell lung = system: DMS 273 small cell lung
HOP-18 NSCLC = system: HOP-18 NSCLC
HT29 colon = system: HT29 colon

`CN(C)c1ccc(/C=c2\sc3nnc(-c4cccnc4)n3c2=O)cc1` showed a TGI (SK-MEL-2 melanoma) of over 100 µM, a TGI (A549 NSCLC) of over 100 µM and a TGI (HL-60(TB) leukemia) of over 100 µM. For the same compound, the TGI (HOP-62 NSCLC) was over 100 µM, the TGI (HCT-15 colon) was over 100 µM and the TGI (HCT-116 colon) was over 100 µM. For the same compound, the TGI (SF-268 CNS) was over 100 µM, the TGI (KM20L2 colon) was over 100 µM and the TGI (IGROV1 ovarian) was over 100 µM. The TGI (KM12 colon) was over 100 µM, the TGI (EKVX NSCLC) was over 100 µM and the TGI (CAKI-1 renal) was over 100 µM. For the same compound, the TGI (SNB-78 CNS) was over 100 µM, the TGI (LXFL 529 NSCLC) was over 100 µM and the TGI (UACC-62 melanoma) was over 100 µM. The TGI (MOLT-4 leukemia) was over 100 µM, the TGI (NCI-H23 lung) was over 100 µM and the TGI (DLD-1 colon) was over 100 µM. The TGI (NCI-H226 lung) was over 100 µM, the TGI (M19-MEL melanoma) was over 100 µM and the TGI (LOX IMVI melanoma) was over 100 µM. For the same compound, the TGI (COLO 205 colon) was over 100 µM, the TGI (SF-295 CNS) was over 100 µM and the TGI (OVCAR-4 ovarian) was over 100 µM. For the same compound, the TGI (M14 melanoma) was over 100 µM, the TGI (ACHN renal) was over 100 µM and the TGI (A498 renal) was over 100 µM. The TGI (U251 CNS) was over 100 µM, the TGI (HCC-2998 colon) was over 100 µM and the TGI (K-562 leukemia) was over 100 µM. It also gave a TGI (SF-539 CNS) of over 100 µM, a TGI (HOP-92 NSCLC) of over 100 µM and a TGI (UO-31 renal) of over 100 µM. The TGI (MALME-3M melanoma) was over 100 µM, the TGI (XF 498 CNS) was over 100 µM and the TGI (SNB-19 CNS) was over 100 µM. The TGI (OVCAR-3 ovarian) was over 100 µM, the TGI (SK-MEL-28 melanoma) was over 100 µM and the TGI (NCI-H460 lung) was over 100 µM. It also gave a TGI (DMS 114 small cell lung) of over 100 µM, a TGI (SN12C renal) of over 100 µM and a TGI (OVCAR-8 ovarian) of over 100 µM. It also gave a TGI (RXF 393 renal) of over 100 µM, a TGI (SK-OV-3 ovarian) of over 100 µM and a TGI (SW-620 colon) of over 100 µM. It also gave a TGI (SNB-75 CNS) of over 100 µM, a TGI (786-0 renal) of over 100 µM and a TGI (UACC-257 melanoma) of over 100 µM. The TGI (NCI-H522 lung) was over 100 µM, the TGI (SK-MEL-5 melanoma) was over 100 µM and the TGI (OVCAR-5 ovarian) was over 100 µM. The TGI (RPMI-8226 leukemia) was over 100 µM, the TGI (CCRF-CEM leukemia) was over 100 µM and the TGI (TK-10 renal) was over 100 µM. It also gave a TGI (DMS 273 small cell lung) of over 100 µM and a TGI (HOP-18 NSCLC) of over 100 µM.
`CCC1c2cc3n(c(=O)c2COC1O)Cc1c-3nc2ccccc2c1Cl` (stereo not drawn) was tested, and the TGI (SK-MEL-2 melanoma) was over 100 µM, the TGI (A549 NSCLC) was over 100 µM and the TGI (HL-60(TB) leukemia) was over 100 µM. The TGI (HOP-62 NSCLC) was over 100 µM, the TGI (HCT-15 colon) was over 100 µM and the TGI (HCT-116 colon) was over 100 µM. It also gave a TGI (SF-268 CNS) of over 100 µM, a TGI (KM20L2 colon) of over 100 µM and a TGI (IGROV1 ovarian) of over 100 µM. It also gave a TGI (KM12 colon) of over 100 µM, a TGI (EKVX NSCLC) of over 100 µM and a TGI (CAKI-1 renal) of over 100 µM. It also gave a TGI (SNB-78 CNS) of over 100 µM, a TGI (LXFL 529 NSCLC) of over 100 µM and a TGI (UACC-62 melanoma) of over 100 µM. It also gave a TGI (MOLT-4 leukemia) of over 73 µM, a TGI (NCI-H23 lung) of over 100 µM and a TGI (DLD-1 colon) of over 100 µM. It also gave a TGI (NCI-H226 lung) of over 100 µM, a TGI (M19-MEL melanoma) of over 100 µM and a TGI (LOX IMVI melanoma) of over 100 µM. For the same compound, the TGI (COLO 205 colon) was over 100 µM, the TGI (SF-295 CNS) was over 100 µM and the TGI (OVCAR-4 ovarian) was over 100 µM. The TGI (M14 melanoma) was over 75 µM, the TGI (ACHN renal) was over 84 µM and the TGI (A498 renal) was over 100 µM. It also gave a TGI (U251 CNS) of over 100 µM, a TGI (HCC-2998 colon) of over 100 µM and a TGI (K-562 leukemia) of over 100 µM. For the same compound, the TGI (SF-539 CNS) was over 100 µM, the TGI (HOP-92 NSCLC) was over 100 µM and the TGI (UO-31 renal) was over 100 µM. It also gave a TGI (MALME-3M melanoma) of over 100 µM, a TGI (XF 498 CNS) of over 100 µM and a TGI (SNB-19 CNS) of over 100 µM. The TGI (HT29 colon) was over 100 µM, the TGI (OVCAR-3 ovarian) was over 100 µM and the TGI (SK-MEL-28 melanoma) was over 100 µM. The TGI (NCI-H460 lung) was over 100 µM, the TGI (DMS 114 small cell lung) was over 100 µM and the TGI (SN12C renal) was over 100 µM. For the same compound, the TGI (OVCAR-8 ovarian) was over 100 µM, the TGI (RXF 393 renal) was over 100 µM and the TGI (SK-OV-3 ovarian) was over 100 µM. It also gave a TGI (SW-620 colon) of over 100 µM, a TGI (SNB-75 CNS) of over 100 µM and a TGI (786-0 renal) of over 100 µM. It also gave a TGI (UACC-257 melanoma) of over 100 µM, a TGI (NCI-H522 lung) of over 100 µM and a TGI (SK-MEL-5 melanoma) of over 100 µM. It also gave a TGI (OVCAR-5 ovarian) of over 100 µM, a TGI (RPMI-8226 leukemia) of over 100 µM and a TGI (CCRF-CEM leukemia) of over 100 µM. It also gave a TGI (TK-10 renal) of over 100 µM, a TGI (DMS 273 small cell lung) of over 100 µM and a TGI (HOP-18 NSCLC) of over 100 µM.
